Measured values from paper PMC4959752, “Pharmacokinetics in Wistar Rats of 5-[(4-Carboxybutanoyl)Amino]-2-Hydroxybenzoic Acid: A Novel Synthetic Derivative of 5-Aminosalicylic Acid (5-ASA) with Possible Anti-Inflammatory Activity” (PLoS ONE, 2016).
“Also recorded” adds a separate entry of the source. Like-named read-outs stand apart in the source and are kept apart here.

Tests used:
MPO = system: MPO; parameters: method as in ref 34 = [34]; 34 Gutiérrez Sánchez M , Rosales-Hernández MC , Padilla-Martínez II , Correa-Basurto J , Mendieta-Wejebe JE . In vivo evaluation of two 5-aminosalicylic acid derivatives considered as potential therap; conditions: model of inflammation in the mouse ear; cited from earlier work
CD1 mice = system: CD1 mice; parameters: method as in ref 37 = [37]; 37 OECD Guidelines for the Testing of Chemicals 425: Acute Oral Toxicity—Up-and-Down-Procedure (UDP). 2008.; conditions: acute toxicity; cited from earlier work
Log P = assay type: physicochemical; conditions: method not given
[1] = Plasma protein binding assay (ultrafiltration); assay type: in vitro ADME; conditions: Wistar, rat; for fraction unbound at 4 h, 1 μg/mL / fraction unbound at 4 h, 5 μg/mL / fraction unbound at 4 h, 10 μg/mL / fraction unbound at 4 h, 20 μg/mL: ultrafiltration, 37°C
Procedure: The resulting samples were incubated for 4 h at 37°C. After incubation, a 100 μL aliquot was removed to analyze the total concentration, and the remaining 500 μL was transferred to a 10 kD cut-off ultrafiltration device (Millipore Corporation, USA), which was centrifuged at 2,000 g for 2 h at 37°C. A 100 μL aliquot of centrifuged plasma was analyzed for the free drug concentration using the RP-HPLC method. The amount of the test compound in the ultrafiltrate was determined by interpolating the main areas of the samples on standard curves containing known amounts of C2. The percentage of protein binding was calculated using the following formula: Protein binding ratio (%) = […].

Wistar rats = system: Wistar rats; parameters: method as in ref 37 = [37]; 37 OECD Guidelines for the Testing of Chemicals 425: Acute Oral Toxicity—Up-and-Down-Procedure (UDP). 2008.; conditions: acute toxicity; cited from earlier work
[2] = Tissue distribution study; assay type: in vivo, Wistar rats
Procedure: […] The animals were sacrificed 10, 30, 90, 180 and 360 min after dosing (n = 3 per treatment time). The whole brain, heart, liver, spleen, lung, kidney, stomach, small intestine, colon, testicles and muscle were rapidly dissected, harvested and thoroughly rinsed in ice-cold saline to eliminate blood and other content. All tissues and organs were weighed on an analytical balance and immediately processed for analysis. Each tissue sample was homogenized with saline solution at a 1:3 (wt/v) ratio. The preparation process for analysis was the same as that described above for plasma.

[3] = read-out: % Bound fraction of C2 in rat plasma ± SD (converted)
[4] = read-out: % Unbound fraction of C2 in rat plasma ± SD

Which “effect on catalytic activity of MPO” value (MPO) does the source give for O=C(O)CCCC(=O)Nc1ccc(O)c(C(=O)O)c1 [C2, 5-[(4-carboxybutanoyl)amino]-2-hydroxybenzoic acid] here?
Its value is “inhibited the catalytic activity of MPO”.

What about the LD50 (CD1 mice) of the same molecule?
The LD50 was > 2000 mg/kg.

What about the logP (Log P) of the same molecule?
Its logP is 1.3.

And the fraction unbound at 4 h, 1 μg/mL [1, 3]?
The fraction unbound at 4 h, 1 μg/mL was 0.921.

And the fraction unbound at 4 h, 1 μg/mL [1, 4]?
The fraction unbound at 4 h, 1 μg/mL was 0.921 ± 0.023.

What about the fraction unbound at 4 h, 5 μg/mL [1, 3] of the same molecule?
The fraction unbound at 4 h, 5 μg/mL was 0.925.

And the fraction unbound at 4 h, 5 μg/mL [1, 4]?
The fraction unbound at 4 h, 5 μg/mL was 0.925 ± 0.018.

And the fraction unbound at 4 h, 10 μg/mL [1, 3]?
Its fraction unbound at 4 h, 10 μg/mL is 0.919.

What about the fraction unbound at 4 h, 10 μg/mL [1, 4] of the same molecule?
The fraction unbound at 4 h, 10 μg/mL was 0.919 ± 0.007.

And the fraction unbound at 4 h, 20 μg/mL [1, 3]?
The fraction unbound at 4 h, 20 μg/mL was 0.898.

What about the fraction unbound at 4 h, 20 μg/mL [1, 4] of the same molecule?
The fraction unbound at 4 h, 20 μg/mL was 0.898 ± 0.008.

And the fraction unbound at 4 h ([1]; concentrations of 1 to 20 μg/mL, read-out: unbound fraction)?
Its fraction unbound at 4 h is 0.898 to 0.925.

What about the fraction unbound at 4 h ([1]; summary in discussion, read-out: protein binding (converted)) of the same molecule?
The fraction unbound at 4 h was 0.9.

What about the LD50 (Wistar rats) of the same molecule?
The LD50 was > 2000 mg/kg.

What about the “crossing of blood-brain barrier / hemato-testicular barrier (presence in brain and testicles)” value ([2]; Wistar rats, i.g. and i.p.) of the same molecule?
The value was “effectively crossed the blood-brain barrier and hemato-testicular barrier; also recorded: able to cross the blood brain barrier”.

And the tissue distribution ([2]; i.g. and i.p. routes, before the 2 h time point)?
The tissue distribution was “widely distributed in all examined tissues”.

And the tissue distribution ([2]; single intragastric or oral dose (100 mg/kg), Wistar rats, 100 mg/kg)?
The tissue distribution was “distributed and detected in all examined tissues (including the brain and colon); also recorded: well distributed in all tissues”.
